Read-outs that look alike come from different tables or passages of the source.
Experiments:
[1] = target: recombinant mouse GALK1 (Mus musculus, UniProt Q9R0N0); test: mGALK1 biochemical activity assay (Kinase-Glo Plus, ATP depletion)
Procedure, shortened: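 Recombinant GALK1 (5 nM) with 100 μM galactose; GALK1 turnover read as ATP depletion by Kinase-Glo Plus luminescence. Reaction ran 1 h at room temperature before detection reagent was added.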

[2] = target: recombinant human GALK1 (Homo sapiens, UniProt P51570); test: hGALK1 biochemical activity assay (Kinase-Glo Plus, ATP depletion)
Procedure, shortened: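 Recombinant human or mouse GALK1 (5 nM, with 100 μM galactose, in the added enzyme solution) was run with ATP (35 μM in the substrate solution) in HEPES pH 8.0 buffer. Compounds were tested at 11 1/3-step concentrations from 57.4 μM to 0.97 nM. After 1 h at room temperature, remaining ATP was read by Kinase-Glo Plus luminescence.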

[3] = aqueous kinetic solubility
[4] = PAMPA permeability; conditions: for Papp: Perm. (1 × 10^−6 cm/sec)
[5] = rat microsomal stability (RLM)
[6] = Tables 2-15, 35 μM ATP, 100 μM galactose, 1 h, bracketed figure after some values is undefined and not reported, read-out: mGALK IC50
[7] = recombinant mouse GALK1, Kinase-Glo Plus ATP depletion, read-out: mGALK
[8] = Tables 2-15, 35 μM ATP, 100 μM galactose, 1 h, bracketed figure after some values (e.g. −1.2) is undefined and not reported, read-out: hGALK IC50
[9] = recombinant human GALK1, Kinase-Glo Plus ATP depletion, read-out: hGALK

recombinant human GALK1, sequence (P51570 whole entry): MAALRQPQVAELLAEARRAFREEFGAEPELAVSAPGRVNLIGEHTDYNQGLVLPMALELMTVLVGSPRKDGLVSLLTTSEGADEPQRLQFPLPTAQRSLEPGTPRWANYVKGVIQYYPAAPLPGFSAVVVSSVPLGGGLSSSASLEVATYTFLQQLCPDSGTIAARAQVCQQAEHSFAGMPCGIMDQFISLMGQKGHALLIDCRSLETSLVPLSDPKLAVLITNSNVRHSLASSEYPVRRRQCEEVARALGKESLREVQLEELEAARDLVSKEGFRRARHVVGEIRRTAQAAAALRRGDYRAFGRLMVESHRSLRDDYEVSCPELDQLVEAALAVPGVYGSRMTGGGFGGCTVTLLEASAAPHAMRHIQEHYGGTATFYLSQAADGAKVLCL
recombinant mouse GALK1, sequence (Q9R0N0 whole entry): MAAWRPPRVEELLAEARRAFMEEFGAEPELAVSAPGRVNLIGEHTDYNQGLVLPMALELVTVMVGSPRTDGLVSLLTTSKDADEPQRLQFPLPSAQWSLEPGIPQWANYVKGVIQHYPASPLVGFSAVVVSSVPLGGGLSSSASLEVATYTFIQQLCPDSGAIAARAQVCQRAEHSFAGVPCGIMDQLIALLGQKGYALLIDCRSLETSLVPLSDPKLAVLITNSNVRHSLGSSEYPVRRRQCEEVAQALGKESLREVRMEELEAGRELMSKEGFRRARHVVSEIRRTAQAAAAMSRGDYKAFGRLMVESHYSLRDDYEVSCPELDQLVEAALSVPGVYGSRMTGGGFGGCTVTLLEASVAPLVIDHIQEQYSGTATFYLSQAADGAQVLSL

| IC50 [1, 6] | IC50 [1, 7] | IC50 [2, 8] | IC50 [2, 9] | Sol. [3] | Papp ([4]; PAMPA) | Metab. Stabil. (m) ([5]; microsomal half-life) | Perm. (1 × 10^−6 cm/sec) [4] | Sol. ([3]; aqueous kinetic solubility) | Perm. (1 × 10^−6 cm/sec) ([4]; PAMPA) | Metab. Stabil. (m) ([5]; microsomal stability half-life) | SMILES |
| --- | --- | --- | --- | --- | --- | --- | --- | --- | --- | --- | --- |
| 1.72 µM | 1.72 µM | 0.12 µM | 0.12 µM | >78 µg/mL | < 1 ×10⁻⁶ cm/s | >30 m | – | – | – | – | CC1=C(C(=O)Nc2cc(C(=O)O)ccn2)C(c2ccc(C)cc2Cl)N=C(Nc2nc3cccc(N)c3o2)N1 (racemic) [Compound 79, 2-(2-((7-aminobenzo[d]oxazol-2-yl)amino)-4-(2-chloro-4-methylphenyl)-6-methyl-1,4-dihydropyrimidine-5-carboxamido)isonicotinic acid] |
| 1.93 µM | 1.93 µM | 0.14 µM | 0.14 µM | >81 µg/mL | < 1 ×10⁻⁶ cm/s | >30 m | – | – | – | – | COc1ccc(C2N=C(Nc3nc4cccc(N)c4o3)NC(C)=C2C(=O)Nc2cc(C(=O)O)ccn2)c(Cl)c1 (racemic) [Compound 80, 2-(2-((7-aminobenzo[d]oxazol-2-yl)amino)-4-(2-chloro-4-methoxyphenyl)-6-methyl-1,4-dihydropyrimidine-5-carboxamido)isonicotinic acid] |
| 30.6 µM | 30.6 µM | – | 21.7 µM | >76 µg/mL | – | >30 m | <1 1 × 10^−6 cm/sec | – | – | – | CC1=C(C(=O)Nc2cc(C(=O)O)ccn2)C(c2ccccc2Cl)N=C(Nc2nc3c(N)cccc3o2)N1 (stereo not drawn) [Compound 2, 2-(2-((4-aminobenzo[d]oxazol-2-yl)amino)-4-(2-chlorophenyl)-6-methyl-1,4-dihydropyrimidine-5-carboxamido)isonicotinic acid] |
| 21.7 µM | 21.7 µM | – | 21.7 µM | >79 µg/mL | – | >30 m | <1 1 × 10^−6 cm/sec | – | – | – | COc1ccc2nc(NC3=NC(c4ccccc4Cl)C(C(=O)Nc4cc(C(=O)O)ccn4)=C(C)N3)oc2c1 (stereo not drawn) [Compound 7, 2-(4-(2-chlorophenyl)-6-methyl-2-((6-methoxybenzo[d]oxazol-2-yl)amino)-1,4-dihydropyrimidine-5-carboxamido)isonicotinic acid] |
| 1.72 µM | 1.72 µM | 0.24 µM | 0.24 µM | 55.6 µg/mL | – | >30 m | <1 1 × 10^−6 cm/sec | – | – | – | CC1=C(C(=O)Nc2cc(C(=O)O)ccn2)[C@H](c2ccccc2Cl)N=C(Nc2nc3ccc(F)cc3o2)N1 [Compound 19, (R)-2-(4-(2-chlorophenyl)-2-((6-fluorobenzo[d]oxazol-2-yl)amino)-6-methyl-1,4-dihydropyrimidine-5-carboxamido)isonicotinic acid] |
| 13.7 µM | 13.7 µM | 3.06 µM | 3.06 µM | 17.3 µg/mL | – | >30 m | <1 1 × 10^−6 cm/sec | – | – | – | CC1=C(C(=O)Nc2cc(C(=O)O)ccn2)[C@@H](c2ccccc2Cl)N=C(Nc2nc3ccc(F)cc3o2)N1 [Compound 20, (S)-2-(4-(2-chlorophenyl)-2-((6-fluorobenzo[d]oxazol-2-yl)amino)-6-methyl-1,4-dihydropyrimidine-5-carboxamido)isonicotinic acid] |
| 38.5 µM | 38.5 µM | 19.3 µM | 19.3 µM | 7.3 µg/mL | – | >30 m | 31.0 1 × 10^−6 cm/sec | – | – | – | CC1=C(C(=O)Nc2cc(C(=O)O)ccn2)C(c2ccccc2Cl)N=C(Nc2nc3cccc([N+](=O)[O-])c3o2)N1 (stereo not drawn) [Compound 23, 2-(4-(2-chlorophenyl)-6-methyl-2-((7-nitrobenzo[d]oxazol-2-yl)amino)-1,4-dihydropyrimidine-5-carboxamido)isonicotinic acid] |
| 34.3 µM | 34.3 µM | 6.11 µM | 6.11 µM | >76 µg/mL | – | >30 m | <1.3 1 × 10^−6 cm/sec | – | – | – | CC1=C(C(=O)Nc2cc(C(=O)O)ccn2)[C@@H](c2ccccc2Cl)N=C(Nc2nc3cccc(N)c3o2)N1 [Compound 25, (S)-2-(2-((7-aminobenzo[d]oxazol-2-yl)amino)-4-(2-chlorophenyl)-6-methyl-1,4-dihydropyrimidine-5-carboxamido)isonicotinic acid] |
| – | 3.43 µM | – | 0.68 µM | >77 µg/mL | – | >30 m | <1 1 × 10^−6 cm/sec | – | – | – | CC1=C(C(=O)Nc2ccc(C(=O)O)cn2)C(c2ccccc2Cl)N=C(Nc2nc3ccc(F)cc3o2)N1 (stereo not drawn) [Compound 26, 6-(4-(2-chlorophenyl)-2-((6-fluorobenzo[d]oxazol-2-yl)amino)-6-methyl-1,4-dihydropyrimidine-5-carboxamido)nicotinic acid] |
| – | 19.3 µM | – | 1.54 µM | 54.0 µg/mL | – | >30 m | 29.6 1 × 10^−6 cm/sec | – | – | – | CC1=C(C(=O)Nc2cc(C(=O)O)ccc2Cl)C(c2ccccc2Cl)N=C(Nc2nc3ccc(F)cc3o2)N1 (stereo not drawn) [Compound 29, 4-chloro-3-(4-(2-chlorophenyl)-2-((6-fluorobenzo[d]oxazol-2-yl)amino)-6-methyl-1,4-dihydropyrimidine-5-carboxamido)benzoic acid] |
| – | 6.85 µM | – | 2.17 µM | 35.7 µg/mL | – | >30 m | 2.2 1 × 10^−6 cm/sec | – | – | – | CC1=C(C(=O)Nc2cc(C(=O)O)ccc2F)C(c2ccccc2Cl)N=C(Nc2nc3ccc(F)cc3o2)N1 (stereo not drawn) [Compound 30, 3-(4-(2-chlorophenyl)-2-((6-fluorobenzo[d]oxazol-2-yl)amino)-6-methyl-1,4-dihydropyrimidine-5-carboxamido)-4-fluorobenzoic acid] |
| 10.9 µM | 10.9 µM | 3.06 µM | 3.06 µM | <1 µg/mL | – | >30 m | 59.9 1 × 10^−6 cm/sec | – | – | – | CC1=C(C(=O)Nc2cc(CO)ccn2)C(c2ccccc2Cl)N=C(Nc2nc3ccc(F)cc3o2)N1 (stereo not drawn) [Compound 37, 4-(2-chlorophenyl)-2-((6-fluorobenzo[d]oxazol-2-yl)amino)-N-(4-(hydroxymethyl)pyridin-2-yl)-6-methyl-1,4-dihydropyrimidine-5-carboxamide] |
| 19.3 µM | 19.3 µM | 4.85 µM | 4.85 µM | 2.4 µg/mL | – | >30 m | 15.5 1 × 10^−6 cm/sec | – | – | – | CC1=C(C(=O)Nc2cc(C(N)=O)ccn2)C(c2ccccc2Cl)N=C(Nc2nc3ccc(F)cc3o2)N1 (stereo not drawn) [Compound 38, N-(4-carbamoylpyridin-2-yl)-4-(2-chlorophenyl)-2-((6-fluorobenzo[d]oxazol-2-yl)amino)-6-methyl-1,4-dihydropyrimidine-5-carboxamide] |
| 4.85 µM | 4.85 µM | 4.32 µM | 4.32 µM | <1 µg/mL | – | >30 m | <6.8 1 × 10^−6 cm/sec | – | – | – | CC1=C(C(=O)Nc2cc(C#N)ccn2)C(c2ccccc2Cl)N=C(Nc2nc3ccc(F)cc3o2)N1 (stereo not drawn) [Compound 39, 4-(2-chlorophenyl)-N-(4-cyanopyridin-2-yl)-2-((6-fluorobenzo[d]oxazol-2-yl)amino)-6-methyl-1,4-dihydropyrimidine-5-carboxamide] |
| – | – | 17.2 µM | – | – | – | – | – | <1 µg/mL | 863.9 1 × 10^−6 cm/sec | >30 m | CC1=C(C(=O)Nc2ccc(CO)cc2)C(c2ccccc2Cl)N=C(Nc2nc3ccccc3o2)N1 (stereo not drawn) [Compound 160, 2-(benzo[d]oxazol-2-ylamino)-4-(2-chlorophenyl)-N-(4-(hydroxymethyl)phenyl)-6-methyl-1,4-dihydropyrimidine-5-carboxamide] |
| – | – | 21 µM | 21.7 µM | – | – | – | – | <1 µg/mL | 246.9 1 × 10^−6 cm/sec | >30 m | COC(=O)c1cncc(NC(=O)C2=C(C)NC(Nc3nc4ccccc4o3)=NC2c2ccccc2Cl)c1 (stereo not drawn) [Compound 188, methyl 5-(2-(benzo[d]oxazol-2-ylamino)-4-(2-chlorophenyl)-6-methyl-1,4-dihydropyrimidine-5-carboxamido)nicotinate] |
| – | – | 4.85 µM | 4.85 µM | – | < 1.7 ×10⁻⁶ cm/s | – | – | 33.4 µg/mL | – | 30 m | CC1=C(C(=O)Nc2ccc(-c3nnn[nH]3)cc2)C(c2ccccc2Cl)N=C(Nc2nc3ccccc3o2)N1 (stereo not drawn) [Compound 192, N-(4-(1H-tetrazol-5-yl)phenyl)-2-(benzo[d]oxazol-2-ylamino)-4-(2-chlorophenyl)-6-methyl-1,4-dihydropyrimidine-5-carboxamide] |

| SMILES | IC50 [1, 6] | IC50 [1, 7] | IC50 [2, 8] | IC50 [2, 9] | Sol. [3] | Papp ([4]; PAMPA) | Metab. Stabil. (m) ([5]; microsomal half-life) | Perm. (1 × 10^−6 cm/sec) [4] | Sol. ([3]; aqueous kinetic solubility) | Perm. (1 × 10^−6 cm/sec) ([4]; PAMPA) | Metab. Stabil. (m) ([5]; microsomal stability half-life) |
| --- | --- | --- | --- | --- | --- | --- | --- | --- | --- | --- | --- |
| COP(=O)(OC)C1=C(C)NC(Nc2nc3ccccc3o2)=NC1c1ccccc1Cl (stereo not drawn) [Compound 242, dimethyl (2-(benzo[d]oxazol-2-ylamino)-4-(2-chlorophenyl)-6-methyl-1,4-dihydropyrimidin-5-yl)phosphonate] | – | – | – | 17.2 µM | – | – | – | – | 12.21 µg/mL | 1813.86 1 × 10^−6 cm/sec | 5.35 m |
